Laboratory results published in patent US20090053138A1, “Stabilized Aptamers to Platelet Derived Growth Factor and their Use as Oncology Therapeutics” (priority 2002, published 2009).
Read-outs that look alike come from different tables or passages of the source. [invdT] = inverted (3'-3') thymidine

Columns and labels:
PDGF BB [1] = target: T1, PDGF BB (Homo sapiens, UniProt P01127); experiment: 3T3 cell proliferation assay (PDGF-BB induced); type: cell-based, rat; design: purchased PeproTech, Rocky Hill, N.J; conditions: for potency compared to ARC127: tyrosine kinase inhibitors
T1 sequence (P01127 82-190 limits assumed): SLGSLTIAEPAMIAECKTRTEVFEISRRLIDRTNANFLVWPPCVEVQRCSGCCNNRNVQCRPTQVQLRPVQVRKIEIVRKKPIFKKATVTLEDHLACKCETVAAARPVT
Experimental: 3T3 cells, a rat fibroblast cell line (ATCC, Manassas, Va.), were plated 3,000 cells/well in a 96 well plate one day prior to the start of the assay in 100 ul DMEM/10% FCS. The following day, cells were washed once with straight DMEM and then 75 ul DMEM/0.8% FCS was added to each well. […] Cells were incubated for 3 days. Following incubation 10 ul MTT (Promega, Madison, Wis.) was added to each well and incubated for an additional 1.5 hours. Media was then removed, 200 ul Isopropanol (2-propanol) was added to each well, cells were re-suspended thoroughly and absorbance at 570 nm was read on a 96 well plate reader.
(§1) 3T3 cells, which are derived from a rat fibroblast cell line (ATCC, Manassas, Va.), were used in a proliferation assay to test potency of modified ARC513 aptamers. 3T3 fibroblast cells have PDGF receptors on their cell-surface and respond to mitogen, e.g., PDGF stimulation by proliferation. The assay was performed as follows: 3T3 cells were plated 3,000 cells/well in a 96 well plate one day prior to the start of the assay in 100 ul DMEM/10% FCS. The following day, cells were washed once with straight DMEM and then 75 ul DMEM/0.8% FCS was added to each well. Then 25 ul of PDGF-BB (PeproTech, Rocky Hill, N.J.) at a 50 ng/ml final concentration was added to each well +/− aptamer condition to be tested. […] The functional PDGF aptamer dilutions usually consisted of 6 points in 2-fold serial dilutions.
(§2) Cells were incubated for 3 days. Following incubation 10 ul MTT (Promega, Madison, Wis.) was added to each well and incubated for an additional 1.5 hours. Media was removed, 200 μl Isopropanol (2-propanol) was added to each well, cells were re-suspended thoroughly and absorbance at 570 nm was read on a 96 well plate reader. The present example depicts the potency comparison of PDGF aptamer ARC: 513 to that of ARC 513 variants.
The 3T3 proliferation assay previously described was used to test potency of all PEG conjugated ARC513 variants described immediately above. The assay was performed as follows: 3T3 cells were plated 3,000 cells/well in a 96 well plate one day prior to the start of the assay in 100 ul DMEM/10% FCS. The following day, cells were washed once with straight DMEM and then 75 ul DMEM/0.8% FCS was added to each well. Then 25 ul of PDGF-BB (PeproTech, Rocky Hill, N.J.) at a 50 ng/ml final concentration was added to each well +/− aptamer condition to be tested. […] The functional PDGF aptamer dilutions usually consisted of 6 points in 2-fold serial dilutions.
as §2, with “ARC513” for “ARC: 513”, “PEGylated ARC513 aptamers.” for “ARC 513 variants.”
as §1, with “3T3” for “3T3 cells, which are derived from a rat fibroblast cell line (ATCC, Manassas, Va.), were used in a proliferation assay to test potency of modified ARC513 aptamers. 3T3”, “100 μl” for “100 ul”
as §2, with “[…]” for “μl”, “reader.” for “reader. The present example depicts the potency comparison of PDGF aptamer ARC: 513 to that of ARC 513 variants.”

PDGF BB [2] = target: T1, PDGF BB; experiment: Competition binding assay, PDGF-BB; design: purchased PeproTech, Rocky Hill, N.J; conditions: Table 2, mean affinity, competitive binding assay; read-out: Affinity
Experimental: Binding reactions were carried out in phosphate-buffered saline (Cellgro, Herndon, Va.) containing 0.2 mg/mL bovine serum albumin (NEB) and 0.02 mg/mL tRNA (Sigma, St. Louis, Mo.). The reactions were equilibrated for a period of 15-30 minutes at room temperature, then filtered through a sandwich of nitrocellulose (Protran membrane, Perkin-Elmer, Boston, Mass.) and nylon (Hybond membrane, Amersham, Piscataway, N.J.) membranes to separate target bound aptamer from free aptamer.
Next, a study was done to determine whether ARC126 cross reacted with PDGF-BB of species other than human. Competition binding assays were set up by dot blot analysis, as previously described, using human, rat, and mouse PDGF-BB (PeproTech, Rocky Hill, N.J.).
The competitive binding assay previously described was used to determine the in vitro binding affinity and selectivity of ARC594 for different PDGF isoforms. Different concentrations of unlabeled, competitor aptamer were titrated in separate reactions against a fixed (<0.1 nM) amount of ^32P-radiolabeled ARC594 in buffer containing a fixed amount (0.1 nM) of the aptamer's cognate target (PDGF-BB; PeproTech). UnPEGylated version of ARC594 was radiolabeled at the 5′ terminus by incubation with γ-^32P-ATP (ICN) and polynucleotide kinase (NEB). Binding reactions were carried out in phosphate-buffered saline (Cellgro) containing 0.2 mg/mL bovine serum albumin (NEB) and 0.02 mg/mL tRNA (Sigma). The reactions were equilibrated for a period of 15-30 minutes at room temperature, then filtered through a sandwich of nitrocellulose (Protran membrane, Perkin-Elmer) and nylon (Hybond membrane, Amersham) membranes to separate target bound aptamer from free aptamer. […] The data was expressed as the ratio of the counts per minute (CPM) of radioactivity due to ^32P-ARC594 bound to PDGF BB on the nitrocellulose membrane (CPMnitrocellulose or CPMnc) over the total CPM (CPMtotal=CPMnitrocellulose+CPMnylon).

[3] = Pharmacokinetics of ARC126 5′ PEG conjugates in mice; conditions: IV administration at 10 mg/kg in mice
Text: The pharmacokinetic (PK) data shown in FIG. 12A was subjected to non-compartmental analysis (NCA) using the industry-standard software package WinNonLin™ v.4.0 (Pharsight Corp., Mountain View, Calif.). […] The pharmacokinetic (PK) data shown in FIG. 12B was subjected to noncompartmental analysis (NCA) using the industry-standard software package WinNonLin™ v.4.0 (Pharsight Corp., Mountain View, Calif.).
The pharmacokinetic (PK) data shown in FIG. 12B was subjected to noncompartmental analysis (NCA) using the industry-standard software package WinNonLin™ v.4.0 (Pharsight Corp., Mountain View, Calif.).

[4] = system: LS174T colon cancer xenograft; conditions: Experiment 3
Text: Experimental overview. Human HT-29 or LS174T colon cancer xenotransplants were established in athymic nude mice (Nu/Nu mice, Charles River Labs, Wilmington, Mass.) by injecting mice with 1×10^7 HT29 cells (ATCC, Manassas, Va.), or 2×10^6 LS174T cells (ATCC Manassas, Va.) sub-cutaneously and allowing the tumors to grow for 5 days. On day 5, two dimensional measurements of the established tumors were taken using a digital caliper. Once tumor measurements were taken, the mice were randomized into groups such that the average tumor size was the same in each group. […]
A third experiment (Experiment 3) was designed to test ARC308/irinotecan and GLEEVEC™/irinotecan dosing regimens in a colon cancer xenotransplant model using human colon carcinoma cell line LS174T (ATCC). […] ARC308 was dosed via intraperitoneal delivery at 50 mg/kg once daily, and GLEEVEC™ was dosed at 50 mg/kg once daily, Monday through Friday. ARC308 prevents PDGF-BB from binding the PDGF receptor; this molecule has a 30K PEG attached. […] The results are statistically significant (two tailed students T-test).
An efficacy analysis of three treatment groups in this study is shown in Table 10 in terms of log cell kill and log cell kill net. Log cell kill is the log(base10) of the number of tumor cells before treatment divided by the number of cells after treatment. […] A fourth experiment (Experiment 4) was designed to further test ARC308/irinotecan dosing regimens in a colon cancer xenotransplant model using human colon carcinoma cell line LS174T (ATCC). […]

[5] = Table 2, mean activity, 3T3 proliferation assay, read-out: Activity

Q: Which results are given for “5′-(SEQ ID NO: 36)-PEG-(SEQ ID NO: 37)-PEG-(SEQ ID NO: 38)-[3′]-3′ (chain 1 CAGGCTACG; chain 2 CGTAGAGCATCA; chain 3 TGATCCTG; piece 1: 2'-O-methyl at 9, other sugars and backbone not given here; piece 2: 2'-O-methyl at 5, 7, 12, other sugars and backbone not given here; piece 3: 2'-O-methyl at 8, other sugars and backbone not given here; further chemistry not fully specified) [ARC276]”?
A: IC50 (PDGF BB [1]; [5]): 18 nM; Kd (PDGF BB [2]): 0.23 nM

Q: For “5′-(SEQ ID NO: 69)-PEG-(SEQ ID NO: 40)-PEG-(SEQ ID NO: 70)-[3′T]-3′ (chain 1 CCCAGGCTACG; chain 2 CGTAGAGCAUCA; chain 3 TGATCCTGGG; piece 1: 2'-O-methyl at 11, other sugars and backbone not given here; piece 2: 2'-O-methyl at 5, 7, 10, 11, 12, other sugars and backbone not given here; piece 3: 2'-O-methyl at 5, 8, 9, 10, 3' [invdT], other sugars and backbone not given here; pieces joined by PEG spacers) [ARC513]”, which IC50 (PDGF BB [1]; PDGF-BB 50 ng/ml, read-out: IC50 values routinely displayed) is on record?
A: Its IC50 is less than 10 nM.

Q: For “5′-[20K PEG]-(SEQ ID NO:1)-HEG-(SEQ ID NO:2)-HEG-(SEQ ID NO:3)-3′-dT-3′ (chain 1 CAGGCUACG; chain 2 CGTAGAGCAUCA; chain 3 TGATCCUG; 5′ 20 kDa PEG; HEG spacers; 3′ dT cap; synthetic aptamer; modified_base (6)..(6) uridine is 2′-fluoro; modified_base (8)..(8) cytidine is 2′-fluoro; modified_base (9)..(9) gm; modified_base (5)..(5) gm; modified_base (7)..(7) gm; modified_base (10)..(10) uridine is 2′-fluoro; modified_base (11)..(11) cytidine is 2′-fluoro; modified_base (12)..(12) adenosine is 2′-O-Methyl; modified_base (5)..(6) cytidine is 2′-fluoro; modified_base (7)..(7) uridine is 2′-fluoro; modified_base (8)..(8) gm) [ARC240]”, which Cmax [3] is on record?
A: The Cmax was 34.3 µM.

Q: And the “MRT” value [3]?
A: The value was 1.16 h.

Q: What about the “Vs” value [3] of the same compound?
A: The value was 0.0003 L/kg.

Q: What about the “t1/2” value [3] of the same compound?
A: Its value is 0.94 h.

Q: Which IC50 (PDGF BB [1]; [5]) does the source give for “124 (ACCATGATCCTGTG; 3' inverted dT, further chemistry not given here) [compound 124]” here?
A: Its IC50 is 3.45 nM.

Q: And the IC50 (PDGF BB [1]; Table 6, PDGF-BB 50 ng/ml, nM, read-out: Mean IC50)?
A: Its IC50 is 20.7 nM.

Q: What about the Kd (PDGF BB [2]) of the same compound?
A: Its Kd is 0.21 nM.

Q: With `Cc1cc2ncc(-c3ccccc3)nc2cc1C` [AG 1295, reference compound] as the compound, how does the “potency compared to ARC127” value (PDGF BB [1]) read?
A: Its value is “much worse potencies”.

Q: For `Cc1cc2ncc(-c3ccc(O)c(O)c3)nc2cc1C` [AG 1433, reference compound], which “unspecific toxic effects, concentration from which visible” value (PDGF BB [1]; signal lower than no treatment) is on record?
A: The value was no less than 300 nM.

Q: What about the “potency compared to ARC127” value (PDGF BB [1]) of the same compound?
A: Its value is “much worse potencies”.

Q: Which “Activity Assessment” value [4] does the source give for `CCc1c2c(nc3ccc(OC(=O)N4CCC(N5CCCCC5)CC4)cc13)-c1cc3c(c(=O)n1C2)COC(=O)[C@]3(O)CC` [Irinotecan, irinotecan, reference compound] here?
A: The value was “Active”.

Q: What about the Log cell kill ([4]; target size 1000 mm^3, ARC308 50 mg/kg, irinotecan 150 mg/kg, combination extrapolated) of the same compound?
A: The Log cell kill was 1.95.

Q: And the “Log cell kill net” value ([4]; treatment duration 18 days, combination extrapolated)?
A: The value was 0.28.

Q: For “SEQ ID NO: 42-PEG-SEQ ID NO: 43-PEG-SEQ ID NO: 44 (chain 1 CAGGCTACG; chain 2 CGTAGAGCATCA; chain 3 TGATCCTG; DNA, backbone not given here; PEG-6 spacers join the three pieces) [ARC299]”, which “binding affinity and cell-based assay activity (in words)” value (PDGF BB [1]; in vitro biochemical binding and cell-based proliferation assays) is on record?
A: Its value is “significantly reduced activity/potency”.
